# Test results as given in patent publication US11236046B2, “Substituted heterocyclic sulfonamide compounds useful as TRPA1 modulators” (Genentech, Inc., priority 2013, dated 2022).
# Target: human TRPA1 (Homo sapiens (Human), UniProt O75762)
# Assay: FLIPR Tetra calcium influx assay, block of cinnamaldehyde-induced calcium influx in CHO cells expressing TRPA1 (human)
# Type: cell-based
# Settings: 20 min compound incubation, 75 uM cinnamaldehyde (~EC80), Hill coefficient fixed to 1.5, read-out: hTRPA1 AUC IC50
# Description: IC50 Determinations of Exemplified Compounds.
# IC50s (effective concentration) of compounds on the human and rat TRPA1 channels were determined using a FLIPR Tetra instrument. CHO cells expressing TRPA1 were plated into 384-well plates, incubated overnight at 37C, and loaded with BD calcium indicator dye for 1 hr at 37° C. followed by 15 minutes. at room temperature. The assay buffer was Hank's Balanced Salt Solution (HBSS) containing 20 mM HEPES (pH readjusted to 7.4) along with 0.02% BSA.
# Following dye load and plate cool down, compounds were added to the cells using FLIPR Tetra. Plates were then incubated with compounds for 20 minutes at room temperature prior to adding agonist. Following this incubation, ˜EC80 concentration of cinnamaldehyde (75 uM for human TRPA1 and 45 uM for rat TRPA1) was added to active the channels and block of cinnamaldehyde induced calcium influx was measured.
# Fixing the Hill coefficient will generally reduce variability of the IC50 determination. The IC50s were individually examined to make sure the MIN and MAX points were set correctly prior to validation of the results.
# Sequence of human TRPA1 (O75762 whole entry): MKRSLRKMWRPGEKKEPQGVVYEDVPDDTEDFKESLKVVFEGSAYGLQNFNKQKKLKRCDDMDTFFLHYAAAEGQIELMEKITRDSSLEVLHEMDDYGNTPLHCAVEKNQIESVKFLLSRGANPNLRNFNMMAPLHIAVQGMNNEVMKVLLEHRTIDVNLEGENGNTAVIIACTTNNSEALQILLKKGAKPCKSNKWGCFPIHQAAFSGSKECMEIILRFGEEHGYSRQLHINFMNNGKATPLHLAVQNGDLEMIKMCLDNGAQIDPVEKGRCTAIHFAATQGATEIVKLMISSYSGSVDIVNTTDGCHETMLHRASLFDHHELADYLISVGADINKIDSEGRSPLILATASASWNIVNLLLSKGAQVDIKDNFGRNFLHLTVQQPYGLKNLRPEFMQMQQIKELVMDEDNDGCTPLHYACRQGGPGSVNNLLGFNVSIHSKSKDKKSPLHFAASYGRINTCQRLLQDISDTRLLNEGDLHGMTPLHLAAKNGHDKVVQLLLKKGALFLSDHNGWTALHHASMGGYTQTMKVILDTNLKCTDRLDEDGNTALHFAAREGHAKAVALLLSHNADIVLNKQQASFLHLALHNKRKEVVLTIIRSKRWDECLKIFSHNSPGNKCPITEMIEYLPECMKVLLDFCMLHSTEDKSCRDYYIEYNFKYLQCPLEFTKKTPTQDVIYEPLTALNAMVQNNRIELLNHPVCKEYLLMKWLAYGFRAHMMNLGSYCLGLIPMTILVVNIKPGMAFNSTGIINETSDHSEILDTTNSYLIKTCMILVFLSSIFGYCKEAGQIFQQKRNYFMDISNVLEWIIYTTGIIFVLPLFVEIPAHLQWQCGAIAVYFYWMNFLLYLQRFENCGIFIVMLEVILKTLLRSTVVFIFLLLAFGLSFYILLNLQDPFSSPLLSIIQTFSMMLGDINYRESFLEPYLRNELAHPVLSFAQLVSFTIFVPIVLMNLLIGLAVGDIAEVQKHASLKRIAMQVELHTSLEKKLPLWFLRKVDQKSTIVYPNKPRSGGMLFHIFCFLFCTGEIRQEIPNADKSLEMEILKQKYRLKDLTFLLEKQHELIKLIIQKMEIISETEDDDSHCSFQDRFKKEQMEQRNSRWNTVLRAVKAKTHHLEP
row,Compound,IC50
1,"O=C(NCc1cc(Cl)nc(-c2ccc(C(F)(F)F)nc2)c1)[C@@H]1C[C@@H](F)CN1S(=O)(=O)c1ccc(F)cc1 [Example 84, (2S,4R)—N-[[2-chloro-6-[6-(trifluoromethyl)-3-pyridyl]-4-pyridyl]methyl]-4-fluoro-1-(4-fluorophenyl)sulfonyl-pyrrolidine-2-carboxamide]",14 nM
2,"O=C(NCc1cc(F)cc(-n2ccc(C(F)(F)F)cc2=O)c1)[C@@H]1C[C@@H](F)CN1S(=O)(=O)c1ccc(F)cc1 [Example 85, (2S,4R)-4-fluoro-N-[[3-fluoro-5-[2-oxo-4-(trifluoromethyl)-1-pyridyl]phenyl]methyl]-1-(4-fluorophenyl)sulfonyl-pyrrolidine-2-carboxamide]",771 nM
3,"O=C(NCc1cc(F)cc(-n2cc(C(F)(F)F)cn2)c1)[C@@H]1C[C@@H](F)CN1S(=O)(=O)c1ccc(F)cc1 [Example 86, (2S,4R)-4-fluoro-1-(4-fluorophenyl)sulfonyl-N-[[3-fluoro-5-[4-(trifluoromethyl)pyrazol-1-yl]phenyl]methyl]pyrrolidine-2-carboxamide]",119 nM
4,"O=C(NCc1cc(F)cc(-n2ccc(C(F)(F)F)n2)c1)[C@@H]1C[C@@H](F)CN1S(=O)(=O)c1ccc(F)cc1 [Example 87, (2S,4R)-4-fluoro-1-(4-fluorophenyl)sulfonyl-N-[[3-fluoro-5-[3-(trifluoromethyl)pyrazol-1-yl]phenyl]methyl]pyrrolidine-2-carboxamide]",103 nM
5,"O=C(NCc1cc(-c2ccc(C(F)F)cc2)c(F)cn1)[C@@H]1C[C@@H](F)CN1S(=O)(=O)c1ccc(F)cc1 [Example 88, (2S,4R)—N-[[4-[4-(difluoromethyl)phenyl]-5-fluoro-2-pyridyl]methyl]-4-fluoro-1-(4-fluorophenyl)sulfonyl-pyrrolidine-2-carboxamide]",41 nM
6,"O=C(NCc1cc(F)cc(-c2ccc(C(F)(F)F)nn2)c1)[C@@H]1C[C@@H](F)CN1S(=O)(=O)c1ccc(F)cc1 [Example 89, (2S,4R)-4-fluoro-1-(4-fluorophenyl)sulfonyl-N-[[3-fluoro-5-[6-(trifluoromethyl)pyridazin-3-yl]phenyl]methyl]pyrrolidine-2-carboxamide]",20 nM
7,"O=C(NCc1cc(F)cc(-c2cnc(C(F)F)cn2)c1)[C@@H]1C[C@@H](F)CN1S(=O)(=O)c1ccc(F)cc1 [Example 90, (2S,4R)—N-[[3-[5-(difluoromethyl)pyrazin-2-yl]-5-fluoro-phenyl]methyl]-4-fluoro-1-(4-fluorophenyl)sulfonyl-pyrrolidine-2-carboxamide]",62 nM
8,"O=C(NCc1cc(F)cc(-c2cnc(C(F)(F)F)nc2)c1)[C@@H]1C[C@@H](F)CN1S(=O)(=O)c1ccc(F)cc1 [Example 91, (2S,4R)-4-fluoro-1-(4-fluorophenyl)sulfonyl-N-[[3-fluoro-5-[2-(trifluoromethyl)pyrimidin-5-yl]phenyl]methyl]pyrrolidine-2-carboxamide]",14 nM
9,"O=C(NCc1cc(-c2ccc3c(c2)OC(F)(F)O3)ncn1)[C@@H]1C[C@@H](F)CN1S(=O)(=O)c1ccc(F)cc1 [Example 92, (2S,4R)—N-[[6-(2,2-difluoro-2H-1,3-benzodioxol-5-yl)pyrimidin-4-yl]methyl]-4-fluoro-1-[(4-fluorobenzene)sulfonyl]pyrrolidine-2-carboxamide]",87 nM
10,"O=C(NCc1cc(-c2ccc(C(F)(F)F)c(F)c2)ncn1)[C@@H]1[C@@H](F)CCN1S(=O)(=O)c1ccc(F)cc1 [Example 93, (2R,3S)-3-fluoro-N-((6-(3-fluoro-4-(trifluoromethyl)phenyl)pyrimidin-4-yl)methyl)-1-(4-fluorophenylsulfonyl)pyrrolidine-2-carboxamide]",14 nM
11,"O=C(NCc1cc(F)cc(-c2ccc(C(F)F)nc2)c1)[C@@H]1C[C@@H](F)CN1S(=O)(=O)c1ccc(F)cc1 [Example 94, (2S,4R)—N-[[3-[6-(difluoromethyl)-3-pyridyl]-5-fluoro-phenyl]methyl]-4-fluoro-1-(4-fluorophenyl)sulfonyl-pyrrolidine-2-carboxamide]",29 nM
12,"O=C(NCc1cc(F)cc(-c2ccc(C(F)(F)F)cn2)c1)[C@@H]1C[C@@H](F)CN1S(=O)(=O)c1ccc(F)cc1 [Example 95, (2S,4R)-4-fluoro-1-(4-fluorophenyl)sulfonyl-N-[[3-fluoro-5-[5-(trifluoromethyl)-2-pyridyl]phenyl]methyl]pyrrolidine-2-carboxamide]",12 nM
13,"Cc1cnc(CNC(=O)[C@@H]2C[C@@H](F)CN2S(=O)(=O)c2ccc(F)cc2)cc1-c1ccc(C(F)(F)F)nc1 [Example 96, (2S,4R)-4-fluoro-1-(4-fluorophenyl)sulfonyl-N-[[5-methyl-4-[6-(trifluoromethyl)-3-pyridyl]-2-pyridyl]methyl]pyrrolidine-2-carboxamide]",162 nM
14,"O=C(NCc1ccc(F)c(-c2cnc(C(F)(F)F)cn2)c1)[C@@H]1[C@@H](F)CCN1S(=O)(=O)c1ccc(F)cc1 [Example 97, (2R,3S)-3-fluoro-N-([4-fluoro-3-[5-(trifluoromethyl)pyrazin-2-yl]phenyl]methyl)-1-[(4-fluorobenzene)sulfonyl]pyrrolidine-2-carboxamide]",24 nM
15,"O=C(NCc1cc(F)cc(-c2cnc(C(F)(F)F)cn2)c1)[C@@H]1[C@@H](F)CCN1S(=O)(=O)c1ccc(F)cc1 [Example 98, (2R,3S)-3-fluoro-N-([3-fluoro-5-[5-(trifluoromethyl)pyrazin-2-yl]phenyl]methyl)-1-[(4-fluorobenzene)sulfonyl]pyrrolidine-2-carboxamide]",4 nM
16,"O=C(NCc1cc(-c2cnc(C(F)(F)F)cn2)c(F)cn1)[C@@H]1C[C@@H](F)CN1S(=O)(=O)c1ccc(F)cc1 [Example 102, (2S,4R)-4-fluoro-N-([5-fluoro-4-[5-(trifluoromethyl)pyrazin-2-yl]pyridin-2-yl]methyl)-1-[(4-fluorobenzene)sulfonyl]pyrrolidine-2-carboxamide]",66 nM
17,"COc1nn(-c2ccc(C(F)(F)F)nc2)cc1CNC(=O)[C@@H]1[C@@H](F)CCN1S(=O)(=O)c1ccc(F)cc1 [Example 103, (2R,3S)-3-fluoro-1-(4-fluorophenylsulfonyl)-N-((3-methoxy-1-(6-(trifluoromethyl)pyridin-3-yl)-1H-pyrazol-4-yl)methyl)pyrrolidine-2-carboxamide]",26 nM
18,"O=C(NCc1cc(-c2ccc(OC(F)(F)F)c(F)c2)ncn1)[C@@H]1C[C@@H](F)CN1S(=O)(=O)c1ccc(F)cc1 [Example 104, (2S,4R)-4-fluoro-N-([6-[3-fluoro-4-(trifluoromethoxy)phenyl]pyrimidin-4-yl]methyl)-1-[(4-fluorobenzene)sulfonyl]pyrrolidine-2-carboxamide]",72 nM
19,"CNc1nc(CNC(=O)[C@@H]2C[C@@H](F)CN2S(=O)(=O)c2ccc(F)cc2)cc(-c2ccc(C(F)(F)F)cc2)n1 [Example 105, (2S,4R)-4-fluoro-1-[(4-fluorobenzene)sulfonyl]-N-[[2-(methylamino)-6-[4-(trifluoromethyl)phenyl]pyrimidin-4-yl]methyl]pyrrolidine-2-carboxamide]",128 nM
20,"COc1cnc(CNC(=O)[C@@H]2C[C@@H](F)CN2S(=O)(=O)c2ccc(F)cc2)cc1-c1ccc(C(F)(F)F)nc1 [Example 108, (2S,4R)-4-fluoro-1-[(4-fluorobenzene)sulfonyl]-N-([5-methoxy-4-[6-(trifluoromethyl)pyridin-3-yl]pyridin-2-yl]methyl)pyrrolidine-2-carboxamide]",256 nM
21,"COc1cnc(CNC(=O)[C@]2(C)C[C@@H](F)CN2S(=O)(=O)c2ccc(F)cc2)cc1-c1ccc(C(F)(F)F)nc1 [Example 109, (2S,4R)-4-fluoro-1-(4-fluorophenyl)sulfonyl-N-[[5-methoxy-4-[6-(trifluoromethyl)-3-pyridyl]-2-pyridyl]methyl]-2-methyl-pyrrolidine-2-carboxamide]",164 nM
22,"COc1nn(-c2ccc(C(F)(F)F)cc2)cc1CNC(=O)[C@@H]1C[C@@H](C#N)CN1S(=O)(=O)c1ccc(F)cc1 [Example 110, (2S,4R)-4-cyano-1-[(4-fluorobenzene)sulfonyl]-N-([3-methoxy-1-[4-(trifluoromethyl)phenyl]-1H-pyrazol-4-yl]methyl)pyrrolidine-2-carboxamide]",165 nM
23,"O=C(NCc1cc(-c2ccc(OC(F)(F)F)cc2)ncn1)[C@@H]1[C@@H](F)CCN1S(=O)(=O)c1ccc(F)cc1 [Example 111, (2R,3S)-3-fluoro-1-(4-fluorophenyl)sulfonyl-N-[[6-[4-(trifluoromethoxy)phenyl]pyrimidin-4-yl]methyl]pyrrolidine-2-carboxamide]",7 nM
24,"N#Cc1cc(CNC(=O)[C@@H]2C[C@@H](F)CN2S(=O)(=O)c2ccc(F)cc2)cc(-c2ccc(C(F)(F)F)nc2)c1 [Example 112, (2S,4R)—N-[[3-cyano-5-[6-(trifluoromethyl)-3-pyridyl]phenyl]methyl]-4-fluoro-1-(4-fluorophenyl)sulfonyl-pyrrolidine-2-carboxamide]",48 nM
25,"O=C(NCc1cc(-c2ccc(C(F)(F)F)cc2F)ncn1)[C@@H]1C[C@@H](F)CN1S(=O)(=O)c1ccc(F)cc1 [Example 113, (2S,4R)-4-fluoro-N-((6-(2-fluoro-4-(trifluoromethyl)phenyl)pyrimidin-4-yl)methyl)-1-(4-fluorophenylsulfonyl)pyrrolidine-2-carboxamide]",161 nM
